Reference: patent US20250090558A1, “APPLICATION OF M[…] PROMOTING BONE FORMATION AND PREVENTING-TREATING OSTEOPOROSIS” (The First Affiliated Hospital of Zhejiang Chinese Medical …, priority 2023, published 2025)

Columns and labels:
primary osteoblasts [1] = experiment: RT-qPCR of osteogenic genes Sp7, Bglap, Alpl in primary osteoblasts; details: RT-PCR
Experimental: After euthanizing 3-5-day-old mouse with CO2, the euthanized mouse is soaked in 70% alcohol for disinfection for 15 minutes. The disinfected mouse is then carefully skinned from a top of the skull, and the skull tissue blocks are placed in an a-modified eagle medium (α-MEM) digestion culture medium containing 1 mg/mL collagenase-A and 1% penicillin/streptomycin. The skull tissue blocks are digested at 37° C. for 6 hours, with the cell tissue blocks being pipetted and blown every hour. After the digestion of the tissue blocks is complete to obtain a mixture, the mixture is filtered through a 70-μm cell strainer, centrifuged at 1000 revolutions per minute (rpm) for 5 minutes, and then resuspended in α-MEM culture medium to obtain mixed cells. The mixed cells are inoculated in a well plate to obtain osteoblasts, and the osteoblasts are cultured in complete α-MEM medium containing 10% fetal bovine serum. When a cell adhesion convergence degree of the osteoblasts reaches 60-70%, the osteoblasts are induced for osteogenic differentiation with an osteogenic culture medium containing ascorbic acid (50 g/mL) and β-glycerophosphate (10 millimoles per liter abbreviated as mM) for 7 days before the cells are collected for the next step of the experiment.
1.1.7 Extraction of Messenger Ribonucleic Acid (mRNA) of Cells and Detection of Reverse Transcription Quantitative Polymerase Chain Reaction (RT-qPCR)
TRIzol reagent (i.e., TRI reagent®) is used to harvest and extract total RNA from the osteoblast cultures. The mRNA is then reverse transcribed into complementary deoxyribonucleic acid (DNA) using the TaqMan reverse transcription kit (Biomake). After that, a real-time quantitative polymerase chain reaction (RT-qPCR) is conducted with the SYBR Premix Ex Taq™ II.

osteoblasts = experiment: alkaline phosphatase staining, osteogenic differentiation of osteoblasts; format: cell-based, mouse; details: in vitro; 2.5 μM, 5.0 μM, 10 μM
OVX model mice = experiment: ovariectomy (OVX) model mouse, estrogen-deficient osteoporosis; format: in vivo; details: for number of TRAP-positive cells: distal femur sections
primary osteoblasts [2] = experiment: cell counting kit-8 (CCK-8) assay, viability of primary osteoblasts; format: cell-based, mouse
[3] = system: Ppm1a knockout (Ppm1a−/−) mice with bone defect; format: in vivo, mouse
[4] = system: livers, hearts, kidneys, and spleens of OVX model mice; experiment: biosafety evaluation, HE staining of organs in OVX model mice; format: in vivo, mouse; details: low-dose and high-dose, 8 weeks of intervention
Text: The livers, hearts, kidneys, and spleens of the mice in the OVX model post-intervention with miltefosine for 8 weeks are collected, and the tissue morphology of these organs is observed through hematoxylin and eosin (HE) staining.

[5] = system: mouse model with femoral distal bone defect; experiment: bone defect repair in mouse model with femoral distal bone defect; format: in vivo
[6] = 8 weeks post-OVX, vs control group
[7] = CT analysis, one week after operation

## CCCCCCCCCCCCCCCCOP([O])(=O)OCC[N+](C)(C)C (stereo not drawn) [miltefosine, hexadecylphosphocholine]
Primary osteoblasts [1]
  expression of osteogenic gene Alpl (mRNA): upregulate
  expression of osteogenic gene Bglap (mRNA): upregulate
  expression of osteogenic gene Sp7 (mRNA): upregulate
osteoblasts
  osteogenic differentiation capacity of osteoblasts (alkaline phosphatase staining): significantly enhance
OVX model mice; 8 weeks post-OVX
  BMD at the distal femur: significantly increase
  Conn.Dn: improve
  SMI of the bone tissue: improve
  bone loss at the distal femur (histomorphometric analysis, ABH/OG, trabecular bone area fraction): reduce bone loss
  number of osteoblasts on the trabecular bone surface: increase
OVX model mice; [6]
  BV/TV of trabecular bone: significantly increased
  Tb.N: significantly increased
  Tb.Sp: markedly reduced
  Tb.Th: significantly increased
OVX model mice; control group vs treated groups
  expression level of mature osteoclast marker cathepsin K (CTSK): no significant difference
OVX model mice; distal femur, 8 weeks post-OVX
  bone formation by ALP immunohistochemical staining: significantly promote the bone formation
  bone formation by immunofluorescence staining for OCN: significantly promote the bone formation
  formation of adipocytes (Fabp4 immunohistochemical staining): no obvious effect
OVX model mice; high-dose
  number of TRAP-positive cells: slightly reduces
OVX model mice; low-dose and high-dose groups, 8 weeks post-OVX
  bone loss at the distal metaphysis of the femur (micro-CT): significantly less
OVX model mice; low-dose
  number of TRAP-positive cells: does not affect
Primary osteoblasts [2]; 0.5 μM to 20 μM in vitro
  effect on the viability of the primary osteoblasts: no significant effect
Primary osteoblasts [2]; 50 μM
  cell death of the primary osteoblasts: approximately 50%
[3]
  osteogenic effects in bone defect repair (Micro-CT): could not exert the above osteogenic effects
[4]
  tissue morphology of livers, hearts, kidneys, and spleens (HE staining): no obvious lesions or pathological changes
[5]; [7]
  BMD in the bone defect repair area: increase
  BV/TV in the bone defect repair area: increase
  trabecular number (Tb.N) in the bone defect repair area: increase
[5]; immunohistochemistry, vs control group
  expression level of osteocalcin (OCN) in the bone defect repair area: significantly increased
[5]; one week after model creation
  bone repair (μ-CT scans of femur): effectively accelerate bone repair
[5]; vs control (vehicle) group, one week after operation
  area of new bone in the bone defect area (SO/FG staining): significantly larger
